The assay has as its target T1, Human RORγ Ligand Binding Domain (RORγ-LBD) (Homo sapiens, UniProt P51449).
T1 construct: made in house; host or cells: E. coli BL21(DE3), modified pET21a
T1 sequence (P51449 263-518): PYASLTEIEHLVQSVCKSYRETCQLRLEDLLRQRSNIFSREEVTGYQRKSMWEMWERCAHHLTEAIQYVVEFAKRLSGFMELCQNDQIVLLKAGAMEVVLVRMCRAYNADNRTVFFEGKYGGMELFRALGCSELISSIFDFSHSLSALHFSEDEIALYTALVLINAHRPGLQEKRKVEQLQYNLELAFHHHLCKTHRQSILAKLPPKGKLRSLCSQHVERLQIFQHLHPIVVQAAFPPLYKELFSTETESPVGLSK
Kind of assay: Dual Fluorescence Energy Transfer (FRET) assay, RORγ-LBD / SRC1(2) co-activator peptide interaction. It counts as biochemical. The note with it: mean of multiple test results if tested more than once; read-out: pIC50 in the dual FRET assay (converted). The text has this:
This assay is based on the knowledge that nuclear receptors interact with cofactors (transcription factors) in a ligand dependent manner. RORγ is a typical nuclear receptor in that it has an AF2 domain in the ligand binding domain (LBD) which interacts with co-activators.
The assay measures ligand-mediated interaction of the co-activator peptide with the purified bacterial-expressed RORγ ligand binding domain (RORγ-LBD) to indirectly assess ligand binding. RORγ has a basal level of interaction with the co-activator SRC1(2) in the absence of ligand, thus it is possible to find ligands that inhibit or enhance the RORγ/SRC1(2) interaction.
Human RORγ Ligand Binding Domain (RORγ-LBD) was expressed in E.coli strain BL21(DE3) as an amino-terminal polyhistidine tagged fusion protein. DNA encoding this recombinant protein was sub-cloned into a modified pET21a expression vector (Novagen).
Approximately 50 g E. coli cell pellet was resuspended in 300 mL of lysis buffer (30 mM imidazole pH 7.0 and 150 mM NaCl). Cells were lysed by sonication and cell debris was removed by centrifugation for 30 minutes at 20,000 g at 4° C. […] The clarified lysate was loaded onto a column (XK-26) packed with ProBond Nickel Chelating resin (Invitrogen), pre-equilibrated with 30 mM imidazole pH 7.0 and 150 mM NaCl. After washing to baseline absorbance with the equilibration buffer, the column was developed with a gradient from 30 to 500 mM imidazole pH 7.0. Column fractions containing the RORγ-LBD protein were pooled and concentrated to a volume of 5 mls. The concentrated protein was loaded onto a Superdex 200 column pre-equilibrated with 20 mM Tris-CI pH 7.2 and 200 mM NaCl. The fractions containing the desired RORγ-LBD protein were pooled together.
Purified RORγ-LBD was buffer exchanged by exhaustive dialysis [3 changes of at least 20 volumes (>8000x)] against PBS [100mM NaPhosphate, pH 8 and 150mM NaC1]. […] The modified protein was distributed into aliquots, frozen on dry ice and stored at −80° C. The biotinylated RORγ-LBD was subjected to mass spectrometric analysis to reveal the extent of modification by the biotinylation reagent.
An appropriate amount of Europium labeled Streptavidin was then added to the biotinylated SRC1(2) solution in a tube to give a final concentration of 10 nM. The tube was inverted gently and incubated for 15 minutes at room temperature. Twenty-fold excess biotin from the 10 mM stock solution was added and the tube was inverted gently and incubated for 10 minutes at room temperature.
Preparation of APC labeled RORγ-LBD: biotinylated RORγ-LBD solution was prepared by adding an appropriate amount of biotinylated RORγ-LBD from the stock solution to a buffer containing 10 mM of freshly added DTT from solid to give a final concentration of 40 nM. An appropriate amount of APC labeled Streptavidin was then added to the biotinylated RORγ-LBD solution in a tube to give a final concentration of 20 nM. The tube was inverted gently and incubated for 15 minutes at room temperature. Twenty-fold excess biotin from the 10 mM stock solution was then added and the tube was inverted gently and incubated for 10 minutes at room temperature.
The reaction mixtures were incubated for 5 minutes. […] The plates were incubated for lhr and then read on ViewLux in Lance mode for EU/APC.

Counter-ions that a name gives are not always drawn.

Turning to `Cc1c(CN2CCN(C(=O)C3CCCC3)[C@@H](C)C2)cc(F)cc1NC(=O)c1cccc(C#N)c1` [Example 66, (S)-3-cyano-N-(3-((4-(cyclopentanecarbonyl)-3-methylpiperazin-1-yl)methyl)-5-fluoro-2-methylphenyl)benzamide], the IC50 was about 39.8 nM. The result for `Cc1c(CN2CCN(C(=O)C3CCCC3)[C@@H](C)C2)cc(Cl)cc1NC(=O)c1cccc(C#N)c1` [Example 193, (S)-N-(5-chloro-3-((4-(cyclopentanecarbonyl)-3-methylpiperazin-1-yl)methyl)-2-methylphenyl)-3-cyanobenzamide, trifluoroacetic acid salt] reads about 63.1 nM.

For the origin of these results see patent US10005731B2, “Modulators of the retinoid-related orphan receptor gamma (ROR-gamma) for use in the treatment of autoimmune and inflammatory diseases” (Glaxo Group Limited, priority 2012, dated 2018).
